LogSw and LogPoct data for 18 molecules are collected here from US20040175401A1, “Enhanced parmacokinetic profile of hydrophobic substances” (priority 2001, published 2004).

Where two headings read alike, the source gives them in different places. Marks after values point to notes of the source that are not given here.

The conditions of data set [1]: starred values; log P estimated using SRC program.
Data set [2] can be described thus: n-octanol/water partition coefficient LogPoct calculated from solubility data. As to conditions: calculated as logPoct = (0.99 - logSw)/1.34. An excerpt:
where logSw is the molar solubility and logPoct is the water-oil partition coefficient. Using this equation, values for logPoct can be calculated from solubility data.

For data set [3] the following is noted: molar aqueous solubility, log value; cited from earlier work.

For the molecule `CCC[C@@]1(CCc2ccccc2)CC(O)=C([C@H](CC)c2cccc(NS(=O)(=O)c3ccc(C(F)(F)F)cn3)c2)C(=O)O1` [N-(3{(1R)-1-[(6R)-4-hydroxy-2-oxo-6-phenethyl-6-propyl-5,6-dihydro-2H-pyran-3-yl]propyl}phenyl)-5-(trifluoromethyl)-2-pyridinesulfonamide], the LogSw in data set [1] is −8.00* moles/L. On the same count and under the same terms, to `Cc1onc(-c2ccccc2)c1-c1ccc(S(N)(=O)=O)cc1` [Valdecoxib] belongs −2.59* moles/L.

In the case of `CC(=O)OCCOCn1cnc2c(=O)[nH]c(N)nc21` [O-acetylacyclovir], the LogPoct in data set [2] is on record as 1.38. For the same molecule, in data set [3], the LogSw is given as −0.86 moles/L. Turning to `O=C1NC(=O)C2(CCCCCCCCCCC2)C(=O)N1` [5,5-(CH2)11-barbituric acid], the LogPoct in data set [2] is reported as 5.07. In addition, the LogSw in data set [3] was −5.80 moles/L. Regarding `O=C1NC(=O)C(c2ccccc2)(c2ccccc2)N1` [5,5-diphenyhlhydantoin], in data set [2], the LogPoct is 3.80. The LogSw in data set [3] was −4.10 moles/L. As for `CCCCCCCC(=O)OCN1C(=O)NC(c2ccccc2)(c2ccccc2)C1=O` [3-octanoloxymethyl-5,5-diphenylhydantoin], in data set [2], the LogPoct was 5.60. Also, the LogSw in data set [3] was −6.52 moles/L. As for `CC12CCC(C1)C(C)(C)C2O` (stereo not drawn) [fenchyl_alcohol], the LogPoct in data set [2] is given as 2.43. In addition, in data set [3], the LogSw is listed as −2.27 moles/L. Consider `CCC(=O)NS(=O)(=O)c1ccc(-c2c(-c3ccccc3)noc2C)cc1` [Parecoxib], for which the LogSw in data set [1] is on record as −3.16* moles/L.

Consider `O=C1NC(=S)NC(=O)C12CCCCC2` [5,5-(CH2)5-2-thiobarbituric acid], for which the LogPoct in data set [2] was 3.32. The LogSw in data set [3] is on record as −3.46 moles/L.

For the molecule `CC1(C)C2CC3OC3(C)C1C2` (stereo not drawn) [pinene_oxide], in data set [2], the LogPoct is recorded as 2.67. Moreover, the LogSw in data set [3] was −2.59 moles/L.

Regarding `CC(C)Nc1cccnc1N1CCN(C(=O)c2cc3cc(NS(C)(=O)=O)ccc3[nH]2)CC1` [delavirdine], in data set [2], the LogPoct was 4.29. The LogSw in data set [3] was −4.76 moles/L. Take `CCC1(C)C(=O)NC(=O)NC1=O` [5-Me-5-ethylbarbituric acid]: the LogPoct in data set [2] is 1.66. The LogSw in data set [3] is on record as −1.23 moles/L. For the molecule `C=CC(=C)CCC=C(C)C` [Myrcene], the LogPoct in data set [2] is 3.41. Further, the LogSw in data set [3] is given as −3.58 moles/L. On to `CC(C)(C)NC(=O)[C@@H]1C[C@@H]2CCCC[C@@H]2CN1C[C@@H](O)[C@H](Cc1ccccc1)NC(=O)[C@H](CC(N)=O)NC(=O)c1ccc2ccccc2n1` [Saquinavir], for which, in data set [2], the LogPoct is reported as 3.97. Moreover, the LogSw in data set [3] is recorded as −4.33 moles/L. Turning to `CCCC(C)C1(CC)C(=O)NC(=S)NC1=O` (stereo not drawn) [5-Et-5-(1-methylbutyl)-2-thiobarbituric acid], the LogPoct in data set [2] is recorded as 3.49. In addition, the LogSw in data set [3] is reported as −3.68 moles/L. As to `O=C1Nc2ccc(Cl)cc2[C@@](C#CC2CC2)(C(F)(F)F)O1` [Efavirenz], the LogPoct in data set [2] is recorded as 4.15. Also, the LogSw in data set [3] is listed as −4.57 moles/L. For `C=C(C)C1CC=C(C)[C@@H](O)C1` (stereo partly drawn) [carveol], the LogPoct in data set [2] was 2.14. For the same molecule, the LogSw in data set [3] is on record as −1.88 moles/L.

Regarding `C=CC(C)(O)CCC=C(C)C` (stereo not drawn) [linalool], the LogPoct in data set [2] is listed as 2.23. Moreover, the LogSw in data set [3] was −2.00 moles/L.
